The text below walks through data of PMC4102965 (ACS Chemical Neuroscience, 2014).

A short description of data set [1]: Pharmacokinetics after single oral dosing, plasma and brain by LC-MS/MS. It is filed as in vivo, rats. The following applies: male, SD, rat, 30 mg/kg.
The subject of another data set is SNL rats. The following applies: previously reported; cited from earlier work.
The conditions of data set [2]: human; cited from earlier work.
A further data set deals with SNL mice. The experiment in a line: Anti-allodynia test in SNL. The following applies: 30 mg/kg oral gavage.
Data set [3] deals with neuromuscular coordination in rats. The experiment in a line: Rotarod test. The following applies: for duration (s) 1 h / duration (s) 2 h / duration (s) 3 h: mean (SEM), max 180 s. (In general: In the rotarod test animals must keep their balance on a rotating rod.)
Data set [4] concerns the target gabapentin-binding site (presumably α2-δ subunit proteins) (Rattus norvegicus, UniProt P54290). The experiment in a line: [3H]gabapentin-binding assay, rat cerebral cortex membranes.
The next data set relates to PSL rats. As to the kind of experiment: Anti-allodynia test in PSL. Format: in vivo. The following applies: 30 mg/kg oral.
For data set [5] the following is noted: dog; cited from earlier work.

Where two headings read alike, the source gives them in different places. Marks after values point to notes of the source that are not given here.

Sequence of gabapentin-binding site (presumably α2-δ subunit proteins) (P54290 25-1091): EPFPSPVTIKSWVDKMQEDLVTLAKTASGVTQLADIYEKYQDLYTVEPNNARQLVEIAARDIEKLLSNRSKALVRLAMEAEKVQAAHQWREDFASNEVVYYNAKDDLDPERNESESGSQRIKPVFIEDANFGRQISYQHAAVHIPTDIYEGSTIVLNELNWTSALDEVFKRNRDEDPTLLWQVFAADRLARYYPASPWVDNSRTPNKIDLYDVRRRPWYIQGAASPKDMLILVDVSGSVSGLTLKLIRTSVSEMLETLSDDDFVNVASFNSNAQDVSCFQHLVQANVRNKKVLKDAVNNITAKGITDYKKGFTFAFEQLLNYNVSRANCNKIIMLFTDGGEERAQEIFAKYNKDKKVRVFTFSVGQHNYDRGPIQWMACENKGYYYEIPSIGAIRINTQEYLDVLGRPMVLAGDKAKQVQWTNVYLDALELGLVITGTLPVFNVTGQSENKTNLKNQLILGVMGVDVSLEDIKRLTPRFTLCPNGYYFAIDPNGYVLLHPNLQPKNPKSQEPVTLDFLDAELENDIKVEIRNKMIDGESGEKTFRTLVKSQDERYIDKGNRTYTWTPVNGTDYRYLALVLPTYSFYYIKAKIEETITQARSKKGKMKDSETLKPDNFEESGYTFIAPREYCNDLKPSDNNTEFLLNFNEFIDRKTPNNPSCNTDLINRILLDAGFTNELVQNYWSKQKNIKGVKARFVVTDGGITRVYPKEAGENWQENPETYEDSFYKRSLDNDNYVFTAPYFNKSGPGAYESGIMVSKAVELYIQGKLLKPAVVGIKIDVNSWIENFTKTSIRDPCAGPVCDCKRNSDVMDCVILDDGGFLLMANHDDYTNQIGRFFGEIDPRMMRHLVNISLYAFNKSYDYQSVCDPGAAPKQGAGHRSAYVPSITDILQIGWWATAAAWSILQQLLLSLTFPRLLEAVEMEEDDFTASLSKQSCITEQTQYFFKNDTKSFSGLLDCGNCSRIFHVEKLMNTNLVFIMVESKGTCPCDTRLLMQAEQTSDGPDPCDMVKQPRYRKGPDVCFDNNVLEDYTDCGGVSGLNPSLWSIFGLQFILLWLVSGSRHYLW

Regarding `CC(C)CC(CN)CC(=O)O` (centres unmarked) [pregabalin, 3-isobutyl-γ-aminobutyric acid], the concentration at 1 h in data set [1] (brain) was determined as 12.4 µM; in data set [1] (plasma), 109 µM. Further, in the data set on SNL rats, the “effect on pain thresholds on both sides of SNL rats” value is “bilateral hypalgesic activity”. The “plasma half-life (T1/2)” value in data set [2] and in data set [5] was “around 6 h” in each case. Besides, the “antiallodynic activity (pain thresholds, paw withdrawal to von Frey filaments)” value in the data set on SNL mice (SNL mice) is on record as “significant antiallodynic activity”. Besides, the “pain thresholds in sham mice (hypalgesic effect)” value with SNL mice (sham mice) is “significantly increased the pain thresholds in sham mice at the late time point of 180 min”. Further, the results for the “duration (s) 1 h” value in data set [3] (10 mg/kg oral), in data set [3] (30 mg/kg oral) and in data set [3] (100 mg/kg oral) were 180 (0.0) s, 180 (0.0) s and 53 (11.5)^# s, respectively. The “duration (s) 2 h” value in data set [3] (10 mg/kg oral) was 160 (19.8) s; in data set [3] (30 mg/kg oral), 93 (24.4)^## s; in data set [3] (100 mg/kg oral) it was 13 (6.3)^## s. The “duration (s) 3 h” value in data set [3] (10 mg/kg oral, 10 mg/kg) is “significantly shortened”; in data set [3] (30 mg/kg oral), 12 (3.7)^## s; in data set [3] (100 mg/kg oral), 6 (2.1)^## s. In addition, the “effect on neuromuscular coordination (duration on the rotating rods)” value in data set [3] (oral, over the doses tested) is “significantly and dose-dependently reduced the duration”. The “RBA (%)” value in data set [4] (IC50 of pregabalin divided by IC50 of test compound) amounted to 100%. Also, the inhibition – broadly, the drop in the measured response relative to a control, in per cent – at 0.39 µM in data set [4] (read-out: % inhibition (at μM)) was determined as 79%. The analgesic effects entry with PSL rats (PSL (Seltzer) rats) is reported as “significant analgesic effects”. For the same compound, the “time at which efficacy on the ipsilateral side peaked” value with PSL rats (PSL rats) amounted to 180 min. Besides, in the data set on PSL rats (PSL rats), the “time up to which efficacy on the ipsilateral side was sustained” value worked out at 300 min. The “hypalgesic effect on the contralateral side” value in the data set on PSL rats (PSL rats, 180 min after administration) is reported as “remarkable hypalgesic effect”.
